Measured values published in BindingDB's records for doi:10.1016/j.bmcl.2021.128353 (Novira Therapeutics, 2021).
pEC50: −log10 of the molar value.

Test: Modulation of capsid assembly in HBV infected in human HepG2.2.15 cells assessed as inhibition of viral DNA replication preincubated for 3 days followed by replacement with fresh medium containing compound and measured after 3 days by QuantiGene assay

SMILES | pEC50
CCOC(=O)c1n[nH]c2c1CN(C(=O)Nc1cccc(Cl)c1)CC2 | 6.59
CCN(C)C(=O)c1n[nH]c2c1CN(C(=O)Nc1cccc(Cl)c1)CC2 | 6.39
CONC(=O)c1n[nH]c2c1CN(C(=O)Nc1cccc(Cl)c1)CC2 | 6.40
O=C(Nc1cccc(Cl)c1)N1CCc2[nH]nc(C(=O)N3CCCCO3)c2C1 | 7.00
CN(OC1COC1)C(=O)c1n[nH]c2c1CN(C(=O)Nc1cccc(Cl)c1)CC2 | 7.62
CN(OC1CCCOC1)C(=O)c1n[nH]c2c1CN(C(=O)Nc1cccc(Cl)c1)CC2 (centres undefined) | 6.43
C[C@@H]1Cc2nn3c(c2CN1C(=O)Nc1ccc(F)c(Cl)c1)C(=O)N(C)O[C@@H](CO)C3 | 8.40
C[C@@H]1Cc2nn3c(c2CN1C(=O)Nc1ccc(F)c(C(F)(F)F)c1)C(=O)N(C)O[C@@H](CO)C3 | 8.57
Cc1cc(NC(=O)N2Cc3c(nn4c3C(=O)N(C)O[C@@H](CO)C4)C[C@H]2C)ccc1F | 8.47
C[C@@H]1Cc2nn3c(c2CN1C(=O)Nc1ccc(F)c(C#N)c1)C(=O)N(C)O[C@@H](CO)C3 | 8.14
C[C@@H]1Cc2nn3c(c2CN1C(=O)Nc1ccc(F)c(C#N)c1)C(=O)N(C)OCC3 | 8.28
C[C@@H]1Cc2nn3c(c2CN1C(=O)Nc1ccc(F)c(Cl)c1)C(=O)N(C)O[C@@H](CN(C)C)C3 | 7.68
C[C@@H]1Cc2nn3c(c2CN1C(=O)Nc1ccc(F)c(C#N)c1)C(=O)N(C)O[C@@H](C(=O)N(C)CC(F)F)C3 | 8.28
C[C@@H]1Cc2nn3c(c2CN1C(=O)Nc1ccc(F)c(C#N)c1)C(=O)N(C)O[C@@H](COCC(F)F)C3 | 8.30
C[C@@H]1Cc2nn3c(c2CN1C(=O)Nc1ccc(F)c(C#N)c1)C(=O)N(C)O[C@@H](CF)C3 | 8.22
CN1O[C@@H](CO)Cn2nc3c(c2C1=O)CN(C(=O)Nc1ccc(F)c(Cl)c1)CC3 | 8.40
CN1O[C@H](CO)Cn2nc3c(c2C1=O)CN(C(=O)Nc1ccc(F)c(Cl)c1)CC3 | 7.82

SMILES | pEC50
CON(C)C(=O)c1n[nH]c2c1CN(C(=O)Nc1cccc(Cl)c1)[C@@H](C)C2 | 7.51
CON(C)C(=O)c1n[nH]c2c1CN(C(=O)Nc1cccc(Cl)c1)[C@H](C)C2 | 6.48
C[C@@H]1Cc2nn3c(c2CN1C(=O)Nc1ccc(F)c(Cl)c1)C(=O)N(C)O[C@H](CO)C3 | 8.40
C[C@H]1Cc2nn3c(c2CN1C(=O)Nc1ccc(F)c(Cl)c1)C(=O)N(C)O[C@H](CO)C3 | 6.67
C[C@H]1Cc2nn3c(c2CN1C(=O)Nc1ccc(F)c(Cl)c1)C(=O)N(C)O[C@@H](CO)C3 | 7.27
CON(C)C(=O)c1n[nH]c2c1CN(C(=O)Nc1cccc(Cl)c1)CC2 [US10189835, Compound 434] | 7.27
CCCC(=O)c1n[nH]c2c1CN(C(=O)Nc1cccc(Cl)c1)CC2 [US10189835, Compound 561] | 7.17
CCN(OC)C(=O)c1n[nH]c2c1CN(C(=O)Nc1cccc(Cl)c1)CC2 [US10189835, Compound 594] | 7.05
CON(C(=O)c1n[nH]c2c1CN(C(=O)Nc1cccc(Cl)c1)CC2)C(C)C [US10189835, Compound 595] | 6.68
CCON(C)C(=O)c1n[nH]c2c1CN(C(=O)Nc1cccc(Cl)c1)CC2 [US10189835, Compound 599] | 7.20
CC(C)ON(C)C(=O)c1n[nH]c2c1CN(C(=O)Nc1cccc(Cl)c1)CC2 [US10189835, Compound 600] | 7.24
O=C(Nc1cccc(Cl)c1)N1CCc2[nH]nc(C(=O)N3CCCO3)c2C1 [US10189835, Compound 699] | 6.92
CCCON(C)C(=O)c1n[nH]c2c1CN(C(=O)Nc1cccc(Cl)c1)CC2 [US10189835, Compound 795] | 6.68
CN(OCCO)C(=O)c1n[nH]c2c1CN(C(=O)Nc1cccc(Cl)c1)CC2 [US10189835, Compound 796] | 6.81
CN(OC1CCC1)C(=O)c1n[nH]c2c1CN(C(=O)Nc1cccc(Cl)c1)CC2 [US10189835, Compound 805] | 7.01
CN(OC1CCOC1)C(=O)c1n[nH]c2c1CN(C(=O)Nc1cccc(Cl)c1)CC2 (centres undefined) [US10189835, Compound 910] | 6.52
CN1CC(ON(C)C(=O)c2n[nH]c3c2CN(C(=O)Nc2cccc(Cl)c2)CC3)C1 [US10189835, Compound 912] | 6.70
